ChEMBL document CHEMBL5543127, “Design, Synthesis, and Biological Evaluation of 2-Phenoxyalkylhydrazide Benzoxazole Derivatives as Quorum Sensing Inhibitors with Strong Antibiofilm Effect” (J Med Chem, 2024)
≈ marks a conversion by molar mass, not a printed value. Calls of active or inactive are those of the source. The calls are words filed in the database; no cut-off is given here.

Tests used:
Pseudomonas aeruginosa [1] = experiment: Anti-microbial activity against penicillin-susceptible Pseudomonas aeruginosa 27853 incubated for 20 hrs By CLSI based micro-dilution method; type: functional
Escherichia coli = experiment: Anti-microbial activity against penicillin-susceptible Escherichia coli ATCC25922 incubated for 20 hrs By CLSI based micro-dilution method; type: functional
Pseudomonas aeruginosa [2] = experiment: Antibacterial activity against Pseudomonas aeruginosa 27853 at logarithmic growth phase assessed as growth inhibition at 153.6 microg/ml measured upto 25 hrs by growth curve assay; type: functional, organism-based; conditions: dose 153.6 µg/ml
Pseudomonas aeruginosa [3] = experiment: Antibiofilm activity against logarithmic growth phase Pseudomonas aeruginosa PAO1 assessed as inhibition of biofilm formation at 32 microg/ml incubated for 20 hrs by crystal violet staining based analysis; type: functional
Pseudomonas aeruginosa [4] = experiment: Antibiofilm activity against logarithmic growth phase Pseudomonas aeruginosa PAO1 assessed as inhibition of biofilm formation at 16 microg/ml incubated for 20 hrs by crystal violet staining based analysis; type: functional; conditions: dose 16.0 µg/ml
Pseudomonas aeruginosa [5] = experiment: Induction of anti-bacterial effect in Pseudomonas aeruginosa PAO1 assessed as synergistic effect by measuring reduction in bacterial survival in presence of clarithromycin measured after 24 hrs incubation; type: functional, organism-based; conditions: dose 8-128 µg/ml
[6] = Inhibition of quorum sensing system in Pseudomonas aeruginosa PAO1 at logarithmic growth period assessed as inhibition of pyocyanin production at 102.4 microg/ml incubated for 18 hrs by pyocyanin inhibition assay; conditions: dose 102.4 µg/ml
Bacillus pumilus = experiment: Anti-microbial activity against Bacillus pumilus CMCC63202 incubated for 20 hrs By CLSI based micro-dilution method; type: functional
Pseudomonas aeruginosa [7] = experiment: Antibacterial activity against Pseudomonas aeruginosa PAO1 at logarithmic growth phase assessed as growth inhibition at 153.6 microg/ml measured upto 25 hrs by growth curve assay; type: functional, organism-based; conditions: dose 153.6 µg/ml
Staphylococcus aureus [8] = experiment: Anti-microbial activity against erythromycin-susceptible Staphylococcus aureus ATCC25923 incubated for 20 hrs By CLSI based micro-dilution method; type: functional
Pseudomonas aeruginosa [9] = experiment: Induction of anti-bacterial effect in Pseudomonas aeruginosa PAO1 assessed as synergistic effect by measuring reduction in bacterial survival in presence of ciprofloxacin measured after 24 hrs incubation; type: functional, organism-based; conditions: dose 8-128 µg/ml
Pseudomonas aeruginosa [10] = experiment: Anti-microbial activity against Pseudomonas aeruginosa PAO1 incubated for 20 hrs By CLSI based micro-dilution method; type: functional
Staphylococcus aureus [11] = experiment: Anti-microbial activity against methicillin-resistant Staphylococcus aureus ATCC43300 incubated for 20 hrs By CLSI based micro-dilution method; type: functional
Pseudomonas aeruginosa [12] = experiment: Anti-virulence activity against logarithmic growth phase Pseudomonas aeruginosa PAO1 assessed as inhibition of Rhamnolipid production at 102.4 microg/ml measured after 24 hrs; type: functional
Bacillus subtilis = experiment: Anti-microbial activity against Bacillus subtilis ATCC9372 incubated for 20 hrs By CLSI based micro-dilution method; type: functional
Pseudomonas aeruginosa [13] = experiment: Inhibition of protease in logarithmic growth phase Pseudomonas aeruginosa PAO1 assessed as inhibition rate at 102.4 microg/ml measured after 32 hrs; conditions: dose 102.4 µg/ml
Erythrocyte = experiment: Hemolytic activity in mouse RBC isolated from eye ball assessed as hemolysis at 256 microg/ml incubated for 1 hr; type: toxicity, cell-based; conditions: dose 256 µg/ml

With `O=C(CCCOc1ccc(C(F)(F)F)cc1)NNc1nc2ccccc2o1` the MIC (Pseudomonas aeruginosa [1]) was 256 µg/mL (≈ 675 µM), the MIC (Escherichia coli) was greater than 512 µg/mL and the Activity (Pseudomonas aeruginosa [2]) was “inactive”. The inhibition at 32 µg/mL (Pseudomonas aeruginosa [3]) was greater than 25.4%, the inhibition (Pseudomonas aeruginosa [4]) was “Active” and the Activity (Pseudomonas aeruginosa [5]) was “Dose-Dependent Effect”. For the same compound, the inhibition [6] was “inactive”, the MIC (Bacillus pumilus) was greater than 512 µg/mL and the Activity (Pseudomonas aeruginosa [7]) was “inactive”. For the same compound, the MIC (Staphylococcus aureus [8]) was 256 µg/mL (≈ 675 µM), the Activity (Pseudomonas aeruginosa [9]) was “Dose-Dependent Effect” and the MIC (Pseudomonas aeruginosa [10]) was greater than 512 µg/mL. It also gave an MIC (Staphylococcus aureus [11]) of 256 µg/mL (≈ 675 µM), an inhibition at 102.4 µg/mL (Pseudomonas aeruginosa [12]) greater than 40% and an MIC (Bacillus subtilis) of 512 µg/mL (≈ 1350 µM). For the same compound, the inhibition (Pseudomonas aeruginosa [13]) was 30% and the Activity (Erythrocyte) was “Non-Toxic”.
In the case of `O=C(CCCOc1cccc(C(F)(F)F)c1)NNc1nc2ccccc2o1`, the MIC (Pseudomonas aeruginosa [1]) is reported as 256 µg/mL (≈ 675 µM), the MIC (Escherichia coli) is reported as greater than 512 µg/mL and the Activity (Pseudomonas aeruginosa [2]) is reported as “inactive”. The inhibition at 32 µg/mL (Pseudomonas aeruginosa [3]) was greater than 25.4%, the inhibition (Pseudomonas aeruginosa [4]) was “Active” and the Activity (Pseudomonas aeruginosa [5]) was “Dose-Dependent Effect”. The inhibition [6] was “inactive”, the MIC (Bacillus pumilus) was greater than 512 µg/mL and the Activity (Pseudomonas aeruginosa [7]) was “inactive”. For the same compound, the MIC (Staphylococcus aureus [8]) was 256 µg/mL (≈ 675 µM), the Activity (Pseudomonas aeruginosa [9]) was “Dose-Dependent Effect” and the MIC (Pseudomonas aeruginosa [10]) was greater than 512 µg/mL. For the same compound, the MIC (Staphylococcus aureus [11]) was 512 µg/mL (≈ 1350 µM), the inhibition at 102.4 µg/mL (Pseudomonas aeruginosa [12]) was greater than 40% and the MIC (Bacillus subtilis) was 512 µg/mL (≈ 1350 µM). The inhibition (Pseudomonas aeruginosa [13]) was 30%.
With `Cc1ccc(OCC(=O)NNc2nc3ccccc3o2)cc1` the MIC (Pseudomonas aeruginosa [1]) was 512 µg/mL (≈ 1720 µM), the MIC (Escherichia coli) was greater than 512 µg/mL and the Activity (Pseudomonas aeruginosa [2]) was “inactive”. For the same compound, the inhibition [6] was “inactive”, the MIC (Bacillus pumilus) was greater than 512 µg/mL and the Activity (Pseudomonas aeruginosa [7]) was “inactive”. The MIC (Staphylococcus aureus [8]) was 512 µg/mL (≈ 1720 µM), the MIC (Pseudomonas aeruginosa [10]) was greater than 512 µg/mL and the MIC (Staphylococcus aureus [11]) was 512 µg/mL (≈ 1720 µM). For the same compound, the MIC (Bacillus subtilis) was 512 µg/mL (≈ 1720 µM) and the inhibition (Pseudomonas aeruginosa [13]) was 13.9%.
In the case of `O=C(CCCCOc1ccc(Cl)cc1)NNc1nc2ccc(Cl)cc2o1`, the MIC (Pseudomonas aeruginosa [1]) is reported as greater than 512 µg/mL, the MIC (Escherichia coli) is reported as greater than 512 µg/mL and the inhibition at 32 µg/mL (Pseudomonas aeruginosa [3]) is reported as greater than 25.4%. The inhibition (Pseudomonas aeruginosa [4]) was “Active”, the Activity (Pseudomonas aeruginosa [5]) was “Dose-Dependent Effect” and the inhibition [6] was “Active”. For the same compound, the MIC (Bacillus pumilus) was 256 µg/mL (≈ 649 µM), the MIC (Staphylococcus aureus [8]) was 256 µg/mL (≈ 649 µM) and the Activity (Pseudomonas aeruginosa [9]) was “Dose-Dependent Effect”. The MIC (Pseudomonas aeruginosa [10]) was greater than 512 µg/mL, the MIC (Staphylococcus aureus [11]) was 256 µg/mL (≈ 649 µM) and the inhibition at 102.4 µg/mL (Pseudomonas aeruginosa [12]) was greater than 40%. The MIC (Bacillus subtilis) was 512 µg/mL (≈ 1300 µM) and the inhibition (Pseudomonas aeruginosa [13]) was “inactive”.
For `Cc1ccc(C(=O)NNc2nc3ccccc3s2)cc1`, the MIC (Pseudomonas aeruginosa [1]) was 512 µg/mL (≈ 1810 µM), the MIC (Escherichia coli) was greater than 512 µg/mL and the Activity (Pseudomonas aeruginosa [2]) was “inactive”. The inhibition at 32 µg/mL (Pseudomonas aeruginosa [3]) was greater than 25.4%, the inhibition (Pseudomonas aeruginosa [4]) was “Active” and the Activity (Pseudomonas aeruginosa [5]) was “Dose-Dependent Effect”. For the same compound, the inhibition [6] was 62.8%, the MIC (Bacillus pumilus) was 256 µg/mL (≈ 903 µM) and the Activity (Pseudomonas aeruginosa [7]) was “inactive”. For the same compound, the MIC (Staphylococcus aureus [8]) was 512 µg/mL (≈ 1810 µM), the Activity (Pseudomonas aeruginosa [9]) was “Dose-Dependent Effect” and the MIC (Pseudomonas aeruginosa [10]) was greater than 512 µg/mL. It also gave an MIC (Staphylococcus aureus [11]) of 256 µg/mL (≈ 903 µM), an MIC (Bacillus subtilis) of 512 µg/mL (≈ 1810 µM) and an inhibition (Pseudomonas aeruginosa [13]) greater than 20%. The Activity (Erythrocyte) was “Non-Toxic”.
`COc1ccc(OCCCC(=O)NNc2nc3ccccc3o2)cc1` showed an MIC (Pseudomonas aeruginosa [1]) of 128 µg/mL (≈ 375 µM), an MIC (Escherichia coli) greater than 512 µg/mL and an inhibition at 32 µg/mL (Pseudomonas aeruginosa [3]) greater than 25.4%. The inhibition (Pseudomonas aeruginosa [4]) was “Active”, the inhibition [6] was “inactive” and the MIC (Bacillus pumilus) was 512 µg/mL (≈ 1500 µM). The MIC (Staphylococcus aureus [8]) was 64 µg/mL (≈ 187 µM), the MIC (Pseudomonas aeruginosa [10]) was greater than 512 µg/mL and the MIC (Staphylococcus aureus [11]) was 128 µg/mL (≈ 375 µM). It also gave an inhibition at 102.4 µg/mL (Pseudomonas aeruginosa [12]) greater than 40%, an MIC (Bacillus subtilis) of 512 µg/mL (≈ 1500 µM) and an inhibition (Pseudomonas aeruginosa [13]) of 30%.
`O=C(CCCCOc1ccc(F)cc1)NNc1nc2ccc(Cl)cc2o1` gave an MIC (Pseudomonas aeruginosa [1]) greater than 512 µg/mL, an MIC (Escherichia coli) greater than 512 µg/mL and an inhibition at 32 µg/mL (Pseudomonas aeruginosa [3]) greater than 25.4%. For the same compound, the inhibition (Pseudomonas aeruginosa [4]) was “Active”, the inhibition [6] was “Active” and the MIC (Bacillus pumilus) was 256 µg/mL (≈ 678 µM). The MIC (Staphylococcus aureus [8]) was 512 µg/mL (≈ 1360 µM), the MIC (Pseudomonas aeruginosa [10]) was greater than 512 µg/mL and the MIC (Staphylococcus aureus [11]) was 256 µg/mL (≈ 678 µM). For the same compound, the inhibition at 102.4 µg/mL (Pseudomonas aeruginosa [12]) was greater than 40%, the MIC (Bacillus subtilis) was 512 µg/mL (≈ 1360 µM) and the inhibition (Pseudomonas aeruginosa [13]) was “inactive”.
With `Clc1ccc(/C=N/Nc2nc3ccccc3o2)cc1` the MIC (Pseudomonas aeruginosa [1]) was greater than 512 µg/mL, the MIC (Escherichia coli) was greater than 512 µg/mL and the Activity (Pseudomonas aeruginosa [2]) was “inactive”. For the same compound, the inhibition [6] was “inactive”, the MIC (Bacillus pumilus) was greater than 512 µg/mL and the Activity (Pseudomonas aeruginosa [7]) was “inactive”. The MIC (Staphylococcus aureus [8]) was 64 µg/mL (≈ 236 µM), the MIC (Pseudomonas aeruginosa [10]) was greater than 512 µg/mL and the MIC (Staphylococcus aureus [11]) was 512 µg/mL (≈ 1880 µM). For the same compound, the MIC (Bacillus subtilis) was 512 µg/mL (≈ 1880 µM) and the inhibition (Pseudomonas aeruginosa [13]) was 21.4%.
For `Cn1/c(=N/NC(=O)c2cccc(Cl)c2)sc2ccccc21`, the MIC (Pseudomonas aeruginosa [1]) was greater than 512 µg/mL, the MIC (Escherichia coli) was greater than 512 µg/mL and the Activity (Pseudomonas aeruginosa [2]) was “inactive”. For the same compound, the inhibition at 32 µg/mL (Pseudomonas aeruginosa [3]) was greater than 25.4%, the inhibition (Pseudomonas aeruginosa [4]) was “Active” and the inhibition [6] was 40.1%. For the same compound, the MIC (Bacillus pumilus) was greater than 512 µg/mL, the Activity (Pseudomonas aeruginosa [7]) was “inactive” and the MIC (Staphylococcus aureus [8]) was greater than 512 µg/mL. It also gave an MIC (Pseudomonas aeruginosa [10]) greater than 512 µg/mL, an MIC (Staphylococcus aureus [11]) greater than 512 µg/mL and an MIC (Bacillus subtilis) greater than 512 µg/mL. It also gave an inhibition (Pseudomonas aeruginosa [13]) greater than 20%.
